Data on ten compounds can be found in ChEMBL document CHEMBL1123271, “Selective monoamine oxidase inhibitors. 4. 4-Aminophenethylamine derivatives with neuron-selective action” (J Med Chem, 1986).

Assay [1] is described as follows: Ratio between inhibition of outside NE neurons to that of inside NE neurons. The assay is classed as functional.
Assay [2] in a line: Ratio between inhibition of outside DA neurons to that of inside DA neurons. It is filed as functional.
Assay [3] has as its system Rattus norvegicus. The experiment in a line: Compound was tested for the behavioral changes in reserpinized rats that indicates the release of dopamine by subcuteneous administration. The assay is classed as functional.
Assay [4] is filed under the species Rattus norvegicus. Put plainly: Compound was tested for its ability to inhibit dopamine uptake. The assay is classed as functional, organism-based.
For assay [5], the species on record is Rattus norvegicus. The experiment in a line: Compound was tested for its ability to inhibit norepinephrine uptake. It is filed as functional, organism-based.
The nature of assay [6]: Ratio between inhibition of outside 5-HT neurons to that of inside 5-HT neurons. The assay is classed as functional.
The species named for assay [7] is Rattus norvegicus. The experiment in a line: Determined from log concentration-inhibition curves using rat brain mitochondrial preparation as enzyme and phenethylamine (PEA) as a substrate. It is filed as functional.
The subject of assay [8] is Rattus norvegicus. Put plainly: Compound was tested for the behavioral changes in reserpinized rats that indicates the release of serotonin (5-HT syndrome) by subcuteneous administration. The assay is classed as functional.
The nature of assay [9]: Ratio (PEA/5-HT) of the compound. The assay is classed as functional.
For assay [10], the species on record is Rattus norvegicus. The experiment in a line: Compound was tested for its ability to inhibit serotonin uptake. The assay is classed as functional, organism-based.
The species entered for assay [11] is Rattus norvegicus. The experiment in a line: Determined from log concentration-inhibition curves using rat brain mitochondrial preparation as enzyme and [14C]5-HT (5-HT) as a substrate. It is filed as functional.
In assay [12] the test system is Rattus norvegicus. The experiment in a line: Compound was tested for the behavioral changes in reserpinized rats that indicates the release of norepinephrine (reversal of ptosis) by subcuteneous administration. The assay is classed as functional.
Assay [13] is filed under the species Rattus norvegicus. The experiment in a line: Compound was tested for its ability to inhibit norepinephrine uptake. It is filed as functional, organism-based.

Molecules are shown by their SMILES. A value given as a limit tells only on which side of the number the result lay.

As for `CC(N)Cc1ccc(N)cc1F` (centres undefined), the Ratio in assay [1] was 71; in assay [2], 23; in [6], 9; in [9] it was 1070. Besides, the results for the Least dose in the assay with Rattus norvegicus [3], in the assay with Rattus norvegicus [8] and in the assay with Rattus norvegicus [12] were 35 mg/kg, 140 mg/kg and 17 mg/kg, respectively. For the same compound, the IC50 (usually the concentration needed to halve the response being measured) is 0.42 µM in the assay listed under Rattus norvegicus [4]; 0.05 µM in the assay listed under Rattus norvegicus [5]; 800 µM in the assay listed under Rattus norvegicus [7]; 1.3 µM in the assay filed under Rattus norvegicus [10]; 0.75 µM in the assay filed under Rattus norvegicus [11].

Turning to `CC(N)Cc1ccc(N)cc1Cl` (centres undefined), the Ratio in assay [1] is above 70; in assay [2], 3.3; in [6], 20; in [9], 2780. Further, the Least dose in the assay on Rattus norvegicus [3] is above 131 mg/kg; in the assay on Rattus norvegicus [8] it was 33 mg/kg; with Rattus norvegicus [12], 16 mg/kg. The 50% inhibitory concentration (IC50) in the assay listed under Rattus norvegicus [4] amounted to 0.07 µM; in the assay listed under Rattus norvegicus [5] it was 0.19 µM; in the assay filed under Rattus norvegicus [7], 750 µM; in the assay listed under Rattus norvegicus [10], 3 µM; in the assay listed under Rattus norvegicus [11] it was 0.27 µM.

For `CCc1cc(N)ccc1CC(C)N` (centres undefined), the Least dose with Rattus norvegicus [3], with Rattus norvegicus [8] and in the assay with Rattus norvegicus [12] was above 269 mg/kg each time. For the same compound, the IC50 in the assay listed under Rattus norvegicus [4] was 20 µM; in the assay filed under Rattus norvegicus [5], 2 µM; in the assay listed under Rattus norvegicus [7] it was 1200 µM; in the assay listed under Rattus norvegicus [10], 10 µM; in the assay filed under Rattus norvegicus [11], 60 µM.

`CC(C)(N)Cc1ccc(N)cc1F`: the Ratio in assay [1] is above 2; in [2], 4.1; in assay [6], 1.6; in assay [9] it was 467. In addition, the figures for the Least dose in the assay on Rattus norvegicus [3], in the assay on Rattus norvegicus [8] and with Rattus norvegicus [12] were 264 mg/kg, above 264 mg/kg and 264 mg/kg, respectively. Also, the half-inhibitory concentration (IC50) in the assay listed under Rattus norvegicus [4] stood at 1.6 µM; in the assay listed under Rattus norvegicus [5], 0.32 µM; in the assay filed under Rattus norvegicus [7], 2800 µM; in the assay filed under Rattus norvegicus [10], 27 µM; in the assay filed under Rattus norvegicus [11], 6 µM.

In the case of `CC(C)(N)Cc1ccc(N)cc1Cl`, the Ratio in [1] worked out at 4.5; in [2], 2.5; in [6], 6; in assay [9] it was 1310. Moreover, the Least dose with Rattus norvegicus [3] is above 247 mg/kg; in the assay with Rattus norvegicus [8], above 247 mg/kg; in the assay on Rattus norvegicus [12], 247 mg/kg. For the same compound, the IC50 in the assay filed under Rattus norvegicus [4] was 15 µM; in the assay listed under Rattus norvegicus [13], 0.6 µM; in the assay filed under Rattus norvegicus [7], 1700 µM; in the assay filed under Rattus norvegicus [10] it was 5.5 µM; in the assay filed under Rattus norvegicus [11] it was 1.3 µM.

With `CC(N)Cc1ccc(N)cc1` (centres undefined), the Ratio in assay [1] is above 10; in assay [2], 19; in assay [6] it was >>5; in assay [9] it was 1030. Also, the Least dose in the assay with Rattus norvegicus [3] was found to be 72 mg/kg; with Rattus norvegicus [8] it was 276 mg/kg; in the assay on Rattus norvegicus [12], 72 mg/kg. Moreover, the IC50 turned out to be 0.16 µM in the assay listed under Rattus norvegicus [4]; 0.07 µM in the assay listed under Rattus norvegicus [5]; 7000 µM in the assay filed under Rattus norvegicus [7]; 20 µM in the assay listed under Rattus norvegicus [10]; 6.8 µM in the assay filed under Rattus norvegicus [11].

For `Cc1cc(N)ccc1CC(C)N` (centres undefined), the Ratio in assay [1] was above 12; in [2] it was 9.7; in assay [6] it was >>5; in assay [9] it was 1560. In addition, the Least dose was above 270 mg/kg in the assay with Rattus norvegicus [3], 270 mg/kg in the assay with Rattus norvegicus [8] and 270 mg/kg in the assay on Rattus norvegicus [12]. Besides, the IC50 is 11 µM in the assay listed under Rattus norvegicus [4]; 0.32 µM in the assay listed under Rattus norvegicus [5]; 2500 µM in the assay filed under Rattus norvegicus [7]; 9 µM in the assay filed under Rattus norvegicus [10]; 1.6 µM in the assay filed under Rattus norvegicus [11].

For the compound `Cc1cc(N)c(Br)cc1CC(C)N` (centres undefined), the Ratio was above 4 in assay [1], 2.1 in assay [2], above 2 in assay [6] and 193 in assay [9]. The Least dose in the assay with Rattus norvegicus [3] is above 211 mg/kg; with Rattus norvegicus [8], 211 mg/kg; with Rattus norvegicus [12], 211 mg/kg. Moreover, the half-maximal inhibitory concentration (IC50) in the assay listed under Rattus norvegicus [4] was found to be 2 µM; in the assay filed under Rattus norvegicus [5], 0.55 µM; in the assay filed under Rattus norvegicus [7], 290 µM; in the assay filed under Rattus norvegicus [10] it was 6.5 µM; in the assay listed under Rattus norvegicus [11], 1.5 µM.

With `Cc1cc(N)ccc1CC(C)(C)N`, the Least dose with Rattus norvegicus [3], with Rattus norvegicus [8] and in the assay on Rattus norvegicus [12] was above 269 mg/kg throughout. For the same compound, the IC50 in the assay filed under Rattus norvegicus [4] came to 40 µM; in the assay filed under Rattus norvegicus [5], 0.36 µM; in the assay listed under Rattus norvegicus [7], 1500 µM; in the assay listed under Rattus norvegicus [10] it was 2.6 µM; in the assay filed under Rattus norvegicus [11], 20 µM. For the same compound, the results for the Ratio in assay [6] and in assay [9] were above 1 and 75, respectively.

As for `CC(N)Cc1c(Cl)cc(N)cc1Cl` (centres undefined), the Ratio came out at 2.2 in assay [1], 1.5 in assay [2], 1 in assay [6] and 28300 in [9]. Besides, the figures for the Least dose in the assay with Rattus norvegicus [3], with Rattus norvegicus [8] and in the assay on Rattus norvegicus [12] were 229 mg/kg, above 229 mg/kg and 115 mg/kg, respectively. The concentration for half-maximal inhibition (IC50) was determined as 30 µM in the assay listed under Rattus norvegicus [4]; 2.2 µM in the assay listed under Rattus norvegicus [5]; 340 µM in the assay filed under Rattus norvegicus [7]; 30 µM in the assay listed under Rattus norvegicus [10]; 0.012 µM in the assay filed under Rattus norvegicus [11].
